# Test results: patent US9546150B2, “Substituted quinazolin-4-ones for inhibiting ubiquitin specific protease 7” (HYBRIGENICS SA, priority 2011, dated 2017)
# What was measured:
# USP8 = target: T1, USP8 (Homo sapiens, UniProt P40818); test: USP8 activity assay, Ub-AMC substrate; format: biochemical; set-up: His tag (pFastBac-HT vector); made in house; host or cells: Sf9 or High Five insect cells, baculovirus; conditions: UbAMC substrate 300 nM, USP8 1.36 nM
# T1 sequence (P40818 1-1118): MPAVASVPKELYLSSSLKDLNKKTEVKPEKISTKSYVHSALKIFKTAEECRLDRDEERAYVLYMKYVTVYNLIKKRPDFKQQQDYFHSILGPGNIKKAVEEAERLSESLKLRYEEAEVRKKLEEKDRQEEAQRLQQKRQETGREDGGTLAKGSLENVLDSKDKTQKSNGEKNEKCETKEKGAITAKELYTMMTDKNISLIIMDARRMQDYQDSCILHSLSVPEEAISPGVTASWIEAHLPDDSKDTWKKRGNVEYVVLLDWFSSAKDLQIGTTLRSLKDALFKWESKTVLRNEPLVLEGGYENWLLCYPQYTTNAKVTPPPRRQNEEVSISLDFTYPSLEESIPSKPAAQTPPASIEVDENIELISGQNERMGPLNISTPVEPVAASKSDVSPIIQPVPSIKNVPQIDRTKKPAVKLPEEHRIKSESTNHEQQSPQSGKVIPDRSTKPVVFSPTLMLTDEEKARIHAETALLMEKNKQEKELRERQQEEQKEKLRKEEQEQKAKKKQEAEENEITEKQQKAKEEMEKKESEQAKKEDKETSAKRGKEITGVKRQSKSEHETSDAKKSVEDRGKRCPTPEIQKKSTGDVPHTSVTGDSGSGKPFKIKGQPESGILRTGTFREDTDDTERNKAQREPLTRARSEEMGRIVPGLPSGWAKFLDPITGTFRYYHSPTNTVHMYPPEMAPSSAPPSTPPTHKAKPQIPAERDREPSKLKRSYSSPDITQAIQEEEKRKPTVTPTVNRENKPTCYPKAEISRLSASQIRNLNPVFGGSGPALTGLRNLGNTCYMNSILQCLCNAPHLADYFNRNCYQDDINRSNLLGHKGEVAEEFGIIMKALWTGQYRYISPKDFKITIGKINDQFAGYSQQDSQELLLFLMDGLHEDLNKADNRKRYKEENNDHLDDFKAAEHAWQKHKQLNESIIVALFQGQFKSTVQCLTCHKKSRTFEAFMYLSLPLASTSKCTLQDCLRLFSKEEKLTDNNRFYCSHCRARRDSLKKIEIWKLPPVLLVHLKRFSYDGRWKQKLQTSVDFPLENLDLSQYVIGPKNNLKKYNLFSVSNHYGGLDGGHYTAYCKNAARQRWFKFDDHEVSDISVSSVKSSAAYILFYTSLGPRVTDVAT
# Description: USP8 was diluted in USP buffer (50 mM Tris HCl; 0.5 mM EDTA; 5 mM DTT; 0.01% Triton X-100; Bovine Serum Albumin 0.05 mg·ml^−1 pH8.8). Compounds stocks (100 mM) were stored at −20° C. in DMSO.
# Reactions were performed as duplicates in Black 384 well plates (small volume microplates; Greiner; 10 μl final reaction volume). The substrate concentration for USP8 was 300 nM Ub-AMC (Boston Biochem). […] The concentrations were determined in order to perform specificity assays under initial velocities at fixed substrate concentration. Compounds were pre-incubated with enzymes for 30 minutes at 25° C. Reactions were initiated by addition of substrate to the plates containing the enzymes (+/− compounds) diluted in assay buffer. Reactions were incubated for 60 minutes at 37° C. Reactions were stopped by adding acetic acid (100 mM final). Readings were performed on a Pherastar Fluorescent Reader (BMG). λ Emission 380 nm: λ Excitation=460 nm.
# USP7 [1] = target: T2, USP7 (Homo sapiens, UniProt Q93009); test: Direct binding to USP7 by ESI-MS; conditions: 50/50/1 H2O/CH3CN/HCOOH, Vc=120 V, Pi=4 mbar
# T2 sequence (Q93009 whole entry): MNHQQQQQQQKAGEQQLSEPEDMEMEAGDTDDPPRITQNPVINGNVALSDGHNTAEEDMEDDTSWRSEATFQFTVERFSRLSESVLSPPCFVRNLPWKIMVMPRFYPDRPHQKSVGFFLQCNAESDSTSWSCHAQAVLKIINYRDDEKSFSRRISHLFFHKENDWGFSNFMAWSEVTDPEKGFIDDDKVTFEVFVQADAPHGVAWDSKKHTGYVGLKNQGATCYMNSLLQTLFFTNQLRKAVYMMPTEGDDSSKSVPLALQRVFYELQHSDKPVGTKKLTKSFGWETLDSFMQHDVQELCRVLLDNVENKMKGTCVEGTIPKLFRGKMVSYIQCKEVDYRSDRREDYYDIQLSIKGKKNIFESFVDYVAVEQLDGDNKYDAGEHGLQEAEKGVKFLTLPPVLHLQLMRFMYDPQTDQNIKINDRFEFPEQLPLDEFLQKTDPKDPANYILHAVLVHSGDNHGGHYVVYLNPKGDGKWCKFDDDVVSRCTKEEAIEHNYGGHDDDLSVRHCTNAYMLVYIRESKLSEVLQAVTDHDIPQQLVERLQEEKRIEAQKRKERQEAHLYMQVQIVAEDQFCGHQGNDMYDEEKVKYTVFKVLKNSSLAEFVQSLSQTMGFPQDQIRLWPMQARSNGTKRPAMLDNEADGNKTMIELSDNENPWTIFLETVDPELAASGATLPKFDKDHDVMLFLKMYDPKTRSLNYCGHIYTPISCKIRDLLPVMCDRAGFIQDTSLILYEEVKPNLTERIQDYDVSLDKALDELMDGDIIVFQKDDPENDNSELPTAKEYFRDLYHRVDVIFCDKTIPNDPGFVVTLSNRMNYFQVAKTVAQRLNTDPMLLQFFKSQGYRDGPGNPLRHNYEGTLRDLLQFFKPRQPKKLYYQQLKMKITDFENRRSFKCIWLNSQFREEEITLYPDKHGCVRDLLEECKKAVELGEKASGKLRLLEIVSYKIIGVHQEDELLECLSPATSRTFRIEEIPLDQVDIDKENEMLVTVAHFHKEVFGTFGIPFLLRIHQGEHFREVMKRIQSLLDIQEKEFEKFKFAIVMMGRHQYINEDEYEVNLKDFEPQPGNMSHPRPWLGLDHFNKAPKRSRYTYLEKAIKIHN
# [2] = system: HCT116 colon cancer cells; test: HCT116 cell viability and proliferation assay (MTS); format: cell-based; conditions: Homo sapiens, HCT-116, HCT116, 72 hours, read-out: Cell viability (MTS): HCT116 GI50 Day 3
# Description: HCT116 colon cancer cells were obtained from ATCC (American Type Culture Collection), and maintained in Mc Coy's 5A medium containing 10% FBS, 3 mM glutamine and 1% penicillin/streptomycin. Cells were incubated at 37° C. in a humidified atmosphere containing 5% CO2.
# Cell viability was assayed using the MTS technique in 96-well culture plates (CellTiter 96® Aqueous Non-Radioactive Cell Proliferation Assay, Promega) according to the manufacturer's instructions. MTS (3-(4,5-dimethyl-thiazol-2-yl)-5-(3-carboxy-methoxyphenyl)-2-(4-sulfophenyl)-2H-tetra-zolium) is a MTT-derived tetrazolium that is reduced in metabolically active cells into a soluble, cell-permeant formazan. The amount of formazan, detected by its absorbance at 492 nm is proportional to the number of living, metabolically active cells.
# 10^3 HCT116 cells were seeded per well. 24 hours later, the medium was changed and the cells treated in triplicate with the concentrations of each compound from 100 μM to 50 nM. The compounds were diluted in 100% DMSO, whose final concentration on cells was kept at 0.5%.
# Cells were incubated with the compounds for 72 hours, and their viability then assayed by the addition of MTS for 2 hours. Absorbance at 492 nm was measured directly from the 96-well culture plates. GI50 (Growth Inhibition 50) concentrations for each compound were calculated using a sigmoidal variable slope fit (Prism 4.0, Graphpad Softwares). Values represent mean of three independent experiments.
# USP7 [3] = target: T2, USP7; test: GST-Ub52-Flag HTRF deubiquitinating enzyme assay, USP7; format: biochemical; set-up: Full-length wild-type human USP7 and its catalytic mutant; His tag (pFastBac-HT vector) (N); made in house; host or cells: Spodoptera frugiperda Sf9 (or High Five) insect cells, baculovirus; conditions: GST-Ub52-Flag substrate, USP7 200 pM
# Description: Bacmid DNA was prepared by an alkaline lysis procedure. The integrity of the bacmid minipreps and their orientation were checked by PCR, using generic and specific primers. Sf9 insect cells were cultured in InsectXpress medium (Cambrex) at 27° C. and transfected with the corresponding bacmid, using GeneShuttle 40 (Q-BIOgen). Viruses were recovered in the supernatant 72 h after transfection. Viruses were amplified by infecting insect cells (Sf9 or High Five cells; invitrogen) in 50 ml InsectXpress medium in a 150 cm^2 cell culture flask with 500 μl of the supernatant from transfected Sf9 cells. Following the second round of amplification, infected cells were recovered by rapid SDS lysis, boiled for 5 min at 100° C., sonicated briefly and centrifuged for 20 min at 14,000 g.
# Flow Through was recovered.
# USP7 [4] = target: T2, USP7; test: HAUbVS competition assay in HEK293 cell lysates, USP7; format: biochemical; conditions: for blocking of HAUbVS labeling of USP7 (anti-USP7 antibody): HEK293 cell lysates, 12.5-200 μM, dose-dependent; for anti-HA immunoblot band at the size corresponding to HA-Ub-VS-USP7: lysed HEK293 cells, different doses, no change of the other bands
IC50 (USP8) [µM],binding to USP7 under dissociating conditions (USP7 [1]),GI50 [2] [µM],IC50 (USP7 [3]) [µM],blocking of HAUbVS labeling of USP7 (anti-USP7 antibody) (USP7 [4]),anti-HA immunoblot band at the size corresponding to HA-Ub-VS-USP7 (USP7 [4]),SMILES
> 200,no binding was observed,> 500,74,,,"O=C(CCc1ccccc1)N1CCC(O)(Cn2cnc3ccccc3c2=O)CC1 [Example 1, 3-{[4-hydroxy-1-(3-phenylpropanoyl)piperidin-4-yl]methyl}-3,4-dihydroquinazolin-4-one]"
,no binding was observed,67,77,efficiently blocked labeling of USP7,almost completely eliminated,"O=C(CCc1ccccc1)N1CCC(O)(Cn2cnc3cc(Cl)ccc3c2=O)CC1 [Example 2, 7-chloro-3-{[4-hydroxy-1-(3-phenylpropanoyl)piperidin-4-yl]methyl}-3,4-dihydroquinazolin-4-one]"
> 200,no binding was observed,93,175,,,"O=C(CCC1CCCC1)N1CCC(O)(Cn2cnc3ccccc3c2=O)CC1 [Example 3, 3-{[1-(3-cyclopentylpropanoyl)-4-hydroxypiperidin-4-yl]methyl}-3,4-dihydroquinazolin-4-one]"
> 200,,19,173,,,"O=C(CCC1CCCC1)N1CCC(O)(Cn2cnc3cc(Cl)ccc3c2=O)CC1 [Example 4, 7-chloro-3-{[1-(3-cyclopentylpropanoyl)-4-hydroxypiperidin-4-yl]methyl}-3,4-dihydroquinazolin-4-one]"
> 200,no binding was observed,113,36,efficiently blocked labeling of USP7,almost completely eliminated,"CC(Cc1cccs1)C(=O)N1CCC(O)(Cn2cnc3ccccc3c2=O)CC1 (stereo not drawn) [Example 5, 3-({4-hydroxy-1-[2-methyl-3-(thiophen-2-yl)propanoyl]piperidin-4-yl}methyl)-3,4-dihydroquinazolin-4-one]"
> 200,,,> 200,,,"CC(C)C(=O)N1CCC(O)(Cn2cnc3ccccc3c2=O)CC1 [Example 6, 3-{[4-hydroxy-1-(2-methylpropanoyl)piperidin-4-yl]methyl}-3,4-dihydroquinazolin-4-one]"
> 200,,> 500,174,,,"COc1cc2ncn(CC3(O)CCN(C(=O)C(C)C)CC3)c(=O)c2cc1OC [Example 7, 3-{[4-hydroxy-1-(2-methylpropanoyl)piperidin-4-yl]methyl}-6,7-dimethoxy-3,4-dihydroquinazolin-4-one]"
> 200,,,214,,,"CCC(CC)C(=O)N1CCC(O)(Cn2cnc3cc(Cl)ccc3c2=O)CC1 [Example 9, 7-chloro-3-{[1-(2-ethylbutanoyl)-4-hydroxypiperidin-4-yl]methyl}-3,4-dihydroquinazolin-4-one]"
> 200,,,> 200,,,"COc1ccccc1CCC(=O)N1CCC(O)(Cn2cnc3ccccc3c2=O)CC1 [Example 10, 3-({4-hydroxy-1-[3-(2-methoxyphenyl)propanoyl]piperidin-4-yl}methyl)-3,4-dihydroquinazolin-4-one]"
> 200,,25,33,,,"CC(Cc1cccs1)C(=O)N1CCC(O)(Cn2cnc3cc(Cl)ccc3c2=O)CC1 (stereo not drawn) [Example 11, 7-chloro-3-({4-hydroxy-1-[2-methyl-3-(thiophen-2-yl)propanoyl]piperidin-4-yl}methyl)-3,4-dihydroquinazolin-4-one]"
> 200,,253,42,,,"O=C(CCc1cccs1)N1CCC(O)(Cn2cnc3ccccc3c2=O)CC1 [Example 12, 3-({4-hydroxy-1-[3-(thiophen-2-yl)propanoyl]piperidin-4-yl}methyl)-3,4-dihydroquinazolin-4-one]"
> 200,,28,29,,,"CC(Cc1ccccc1)C(=O)N1CCC(O)(Cn2cnc3cc(Cl)ccc3c2=O)CC1 (stereo not drawn) [Example 14, 3-{[1-(2-benzylpropanoyl)-4-hydroxypiperidin-4-yl]methyl}-7-chloro-3,4-dihydroquinazolin-4-one]"

SMILES,IC50 (USP8) [µM],binding to USP7 under dissociating conditions (USP7 [1]),GI50 [2] [µM],IC50 (USP7 [3]) [µM],blocking of HAUbVS labeling of USP7 (anti-USP7 antibody) (USP7 [4]),anti-HA immunoblot band at the size corresponding to HA-Ub-VS-USP7 (USP7 [4])
"CC(Cc1ccccc1)C(=O)N1CCC(O)(Cn2cnc3ccccc3c2=O)CC1 (stereo not drawn) [Example 13, 3-{[1-(2-benzylpropanoyl)-4-hydroxypiperidin-4-yl]methyl}-3,4-dihydroquinazolin-4-one]",> 200,,103,,,
